# Test results reported in patent US11547697B2, “Heterocyclic compounds and uses thereof” (MILLENNIUM PHARMACEUTICALS, INC., priority 2009, dated 2023).
# Read-outs that look alike come from different tables or passages of the source.
# Key:
# HCT116 cells = test: Cell arrest assay, alone and in combination with MEK inhibitor; assay type: cell-based, human; details: 3 μM compound 54 or 0.3 μM PD0325901, 20 hours
# Procedure: Cells are then incubated in the presence of DMSO or inhibitor for 20 hours. The number of cells at each stage in the cell cycle is determined and expressed as a percent of the total, with an increase in the number of cells arrested at pre-GO/G1 indicating effective inhibition of cell cycle progression.
# [1] = test system: lupus disease model mice (R2KO, BXSB or MLR/lpr); details: B6.Sle1z.Sle3z model (T. Wu et al.); cited from earlier work
# [2] = 5 μM, PBS pH 7.4, 37° C., 24 hours; cited from earlier work
# [3] = test system: Human tumor cell lines (e.g., MCF7, U-87 MG, MDA-MB-468, PC-3); test: Tumor cell line proliferation assay (Alamar Blue); assay type: cell-based; details: PC3 cells
# Procedure: The ability of one or more subject compounds to inhibit tumor cell line proliferation is determined according to standard procedures known in the art. For instance, an in vitro cellular proliferation assay can be performed to measure the metabolic activity of live cells. The assay is performed in a 96 well microtiter plate using Alamar Blue reduction. Human tumor cell lines are obtained from ATCC (e.g., MCF7, U-87 MG, MDA-MB-468, PC-3), grown to confluency in T75 flasks, trypsinized with 0.25% trypsin, washed one time with Tumor Cell Media (DMEM+10% FBS), and plated in 90 ul at 5,000 cells/well in Tumor Cell Media. A compound disclosed herein is diluted in Tumor Cell Media and added in a 10 ul volume. Plates are incubated for 72 hours at 37 C and 5% CO2. A volume of 10 uL of Alamar Blue reagent is added to each well and plates are incubated for 3 hours at 37 C and 5% CO2. Alamar Blue fluoresce is read at 560Ex/590Em, and IC50 values are calculated using GraphPad Prism 5.
# p110α/p85α = p110α/p85α (Homo sapiens (Human), UniProt P42336); test: PI 3-Kinase (human) HTRF assay, p110α/p85α; assay type: biochemical; details: read-out: PI3K α IC50
# p110α/p85α, sequence (P42336 whole entry): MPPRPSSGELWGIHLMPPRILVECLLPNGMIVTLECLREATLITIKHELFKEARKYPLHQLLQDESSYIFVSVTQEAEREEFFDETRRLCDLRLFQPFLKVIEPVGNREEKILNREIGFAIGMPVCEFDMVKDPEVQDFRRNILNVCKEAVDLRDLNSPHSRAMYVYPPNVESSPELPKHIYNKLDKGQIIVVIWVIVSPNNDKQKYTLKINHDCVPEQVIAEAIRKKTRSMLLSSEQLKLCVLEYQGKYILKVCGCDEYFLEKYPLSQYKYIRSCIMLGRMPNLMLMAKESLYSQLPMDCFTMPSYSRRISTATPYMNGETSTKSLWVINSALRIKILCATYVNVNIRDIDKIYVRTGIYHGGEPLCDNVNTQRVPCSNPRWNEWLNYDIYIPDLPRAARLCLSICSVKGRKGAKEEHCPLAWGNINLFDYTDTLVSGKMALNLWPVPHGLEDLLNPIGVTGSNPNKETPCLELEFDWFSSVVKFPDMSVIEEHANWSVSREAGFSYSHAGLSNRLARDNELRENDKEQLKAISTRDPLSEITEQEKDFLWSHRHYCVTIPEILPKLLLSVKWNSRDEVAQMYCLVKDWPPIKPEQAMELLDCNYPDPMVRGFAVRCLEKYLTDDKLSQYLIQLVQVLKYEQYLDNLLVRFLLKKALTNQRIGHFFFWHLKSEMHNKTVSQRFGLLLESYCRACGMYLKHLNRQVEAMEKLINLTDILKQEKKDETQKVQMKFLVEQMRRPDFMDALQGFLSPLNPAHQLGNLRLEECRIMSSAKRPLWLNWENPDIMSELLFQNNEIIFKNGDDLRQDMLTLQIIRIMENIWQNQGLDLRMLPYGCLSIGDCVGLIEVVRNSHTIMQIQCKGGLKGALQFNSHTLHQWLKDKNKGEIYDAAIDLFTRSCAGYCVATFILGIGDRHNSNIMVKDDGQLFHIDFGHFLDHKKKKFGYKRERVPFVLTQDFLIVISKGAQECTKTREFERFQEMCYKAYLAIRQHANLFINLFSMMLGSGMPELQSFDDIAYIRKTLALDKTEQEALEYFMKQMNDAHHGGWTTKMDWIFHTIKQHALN
# p110α/p85α, sequence (P27986 whole entry partner): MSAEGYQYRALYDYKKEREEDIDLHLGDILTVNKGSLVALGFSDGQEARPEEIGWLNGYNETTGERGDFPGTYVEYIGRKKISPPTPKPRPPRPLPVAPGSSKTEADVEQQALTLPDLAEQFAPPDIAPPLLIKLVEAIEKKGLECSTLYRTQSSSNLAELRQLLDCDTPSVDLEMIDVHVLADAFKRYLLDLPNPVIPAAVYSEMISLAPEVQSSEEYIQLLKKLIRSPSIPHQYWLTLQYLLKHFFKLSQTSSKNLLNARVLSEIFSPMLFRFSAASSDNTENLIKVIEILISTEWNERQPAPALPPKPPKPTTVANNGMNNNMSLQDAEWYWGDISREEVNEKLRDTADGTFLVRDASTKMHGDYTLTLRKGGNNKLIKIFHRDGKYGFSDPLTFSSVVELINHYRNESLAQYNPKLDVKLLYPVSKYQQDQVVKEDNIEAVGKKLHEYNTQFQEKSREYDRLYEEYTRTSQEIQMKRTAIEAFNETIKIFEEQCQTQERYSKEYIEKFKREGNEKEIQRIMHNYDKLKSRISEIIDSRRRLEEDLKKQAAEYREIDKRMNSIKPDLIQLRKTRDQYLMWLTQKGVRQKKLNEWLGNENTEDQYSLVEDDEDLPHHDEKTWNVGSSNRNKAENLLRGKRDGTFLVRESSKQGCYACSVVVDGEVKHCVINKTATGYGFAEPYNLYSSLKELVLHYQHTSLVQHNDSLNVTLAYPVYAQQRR
# p110γ = p110γ (Homo sapiens (Human), UniProt P48736); test: PI 3-Kinase (human) HTRF assay, p110γ; assay type: biochemical; details: read-out: PI3K γ IC50
# p110γ, sequence (P48736 whole entry): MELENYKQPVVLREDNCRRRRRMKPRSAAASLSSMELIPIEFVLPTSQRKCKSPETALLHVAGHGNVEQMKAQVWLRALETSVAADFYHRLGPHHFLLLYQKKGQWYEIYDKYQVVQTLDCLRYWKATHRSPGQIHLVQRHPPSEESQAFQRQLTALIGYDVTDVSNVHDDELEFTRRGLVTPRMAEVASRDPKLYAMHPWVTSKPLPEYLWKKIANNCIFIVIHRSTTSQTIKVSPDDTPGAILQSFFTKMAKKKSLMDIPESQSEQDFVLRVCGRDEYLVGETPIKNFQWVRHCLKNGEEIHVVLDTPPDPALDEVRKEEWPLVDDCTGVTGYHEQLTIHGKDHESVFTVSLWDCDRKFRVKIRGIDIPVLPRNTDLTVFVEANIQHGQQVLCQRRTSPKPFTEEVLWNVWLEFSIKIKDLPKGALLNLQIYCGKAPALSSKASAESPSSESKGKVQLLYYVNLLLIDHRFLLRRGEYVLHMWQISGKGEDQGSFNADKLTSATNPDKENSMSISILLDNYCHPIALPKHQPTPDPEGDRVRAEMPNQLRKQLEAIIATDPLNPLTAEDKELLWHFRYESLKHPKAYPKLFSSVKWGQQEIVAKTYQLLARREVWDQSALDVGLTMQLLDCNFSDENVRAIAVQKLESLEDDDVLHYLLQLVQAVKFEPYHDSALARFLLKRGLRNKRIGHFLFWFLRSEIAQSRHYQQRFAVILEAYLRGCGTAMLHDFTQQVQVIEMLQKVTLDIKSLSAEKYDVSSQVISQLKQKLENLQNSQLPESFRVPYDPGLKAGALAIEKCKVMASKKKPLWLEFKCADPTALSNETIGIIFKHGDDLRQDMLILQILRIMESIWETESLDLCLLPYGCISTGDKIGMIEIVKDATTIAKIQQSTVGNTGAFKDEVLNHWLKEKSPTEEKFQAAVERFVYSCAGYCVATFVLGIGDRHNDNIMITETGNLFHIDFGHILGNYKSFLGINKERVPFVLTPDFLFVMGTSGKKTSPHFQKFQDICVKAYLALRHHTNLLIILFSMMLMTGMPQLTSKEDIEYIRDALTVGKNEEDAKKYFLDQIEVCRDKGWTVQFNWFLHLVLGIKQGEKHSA
# recombinant mTOR = recombinant mTOR (Homo sapiens (Human), UniProt P42345); test: mTOR inhibition assay (radiometric or LanthaScreen TR-FRET); assay type: biochemical; details: read-out: MTORC IC50
# Procedure: The compounds described herein can be tested against recombinant mTOR (Invitrogen) in an assay containing 50 mM HEPES, pH 7.5, 1 mM EGTA, 10 mM MgCl2, 2.5 mM, 0.01% Tween, 10 pM ATP (2.5 μCi of μ-32P-ATP), and 3 μg/mL BSA. R^at recombinant PHAS-1/4EBP1 (Calbiochem; 2 mg/mL) is used as a substrate. Reactions are terminated by spotting onto nitrocellulose, which is washed with 1M NaCl/1% phosphoric acid (approximately 6 times, 5-10 minutes each). Sheets are dried and the transferred radioactivity quantitated by phosphorimaging.
# For instance, one can use Invitrogen's LanthaScreen™ Kinase assay to test the inhibitors of mTOR disclosed herein. This assay is a time resolved FRET platform that measures the phosphorylation of GFP labeled 4EBP1 by mTOR kinase. The kinase reaction is performed in a white 384 well microtitre plate. The total reaction volume is 20 ul per well and the reaction buffer composition is 50 mM HEPES pH7.5, 0.01% Polysorbate 20, 1 mM EGTA, 10 mM MnCl2, and 2 mM DTT. In the first step, each well receives 2 ul of test compound in 20% dimethylsulphoxide resulting in a 2% DMSO final concentration. Next, 8 ul of mTOR diluted in reaction buffer is added per well for a 60 ng/ml final concentration. To start the reaction, 10 ul of an ATP/GFP-4EBP1 mixture (diluted in reaction buffer) is added per well for a final concentration of 10 μM ATP and 0.5 μM GFP-4EBP1. The plate is sealed and incubated for 1 hour at room temperature. […] The plate is sealed, incubated for 1 hour at room temperature, and then read on a plate reader set up for LanthaScreen™ TR-FRET. Data is analyzed and IC50s are generated using GraphPad Prism 5.
# p110δ/p85α = p110δ/p85α (Homo sapiens (Human), UniProt O00329); test: PI 3-Kinase (human) HTRF assay, p110δ/p85α; assay type: biochemical; details: read-out: PI3K δ IC50
# p110δ/p85α, sequence (O00329 whole entry): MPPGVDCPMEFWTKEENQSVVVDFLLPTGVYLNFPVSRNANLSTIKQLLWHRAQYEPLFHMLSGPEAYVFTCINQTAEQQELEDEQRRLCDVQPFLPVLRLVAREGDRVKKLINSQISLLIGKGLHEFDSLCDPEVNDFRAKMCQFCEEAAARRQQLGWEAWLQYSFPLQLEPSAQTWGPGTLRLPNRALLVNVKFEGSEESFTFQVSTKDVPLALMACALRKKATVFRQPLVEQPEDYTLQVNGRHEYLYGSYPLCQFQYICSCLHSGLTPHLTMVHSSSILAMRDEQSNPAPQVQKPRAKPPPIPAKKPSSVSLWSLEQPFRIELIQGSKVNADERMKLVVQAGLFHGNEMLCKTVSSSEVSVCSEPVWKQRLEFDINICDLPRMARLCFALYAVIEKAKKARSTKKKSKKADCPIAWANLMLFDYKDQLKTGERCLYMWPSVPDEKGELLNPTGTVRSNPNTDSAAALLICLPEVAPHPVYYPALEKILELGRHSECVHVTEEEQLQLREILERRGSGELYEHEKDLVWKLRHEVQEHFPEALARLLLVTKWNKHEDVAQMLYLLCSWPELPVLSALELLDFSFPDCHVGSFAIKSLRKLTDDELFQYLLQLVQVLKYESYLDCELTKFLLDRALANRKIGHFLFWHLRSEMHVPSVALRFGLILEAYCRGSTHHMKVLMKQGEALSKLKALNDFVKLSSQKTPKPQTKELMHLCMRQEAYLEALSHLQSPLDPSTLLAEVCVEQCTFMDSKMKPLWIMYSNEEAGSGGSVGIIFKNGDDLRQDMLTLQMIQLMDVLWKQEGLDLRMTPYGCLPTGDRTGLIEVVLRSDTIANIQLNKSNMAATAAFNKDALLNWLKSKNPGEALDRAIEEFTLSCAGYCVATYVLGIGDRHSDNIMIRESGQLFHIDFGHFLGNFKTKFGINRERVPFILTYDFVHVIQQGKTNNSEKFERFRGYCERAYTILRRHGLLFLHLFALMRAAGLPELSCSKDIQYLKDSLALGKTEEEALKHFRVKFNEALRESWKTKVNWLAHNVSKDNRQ
# p110δ/p85α, sequence (P27986 whole entry partner): as the sequence (P27986 whole entry partner) above
# Procedure: (§1) An exemplary system is PI 3-Kinase (human) HTRF™ Assay from Upstate. […] Briefly, the assay is a time resolved FRET assay that indirectly measures PIP3 product formed by the activity of a PI3-K. The kinase reaction is performed in a microtitre plate (e.g., a 384 well microtitre plate). The total reaction volume is approximately 20 ul per well. In the first step, each well receives 2 ul of test compound in 20% dimethylsulphoxide resulting in a 2% DMSO final concentration. Next, approximately 14.5 ul of a kinase/PIP2 mixture (diluted in 1× reaction buffer) is added per well for a final concentration of 0.25-0.3 ug/ml kinase and 10 μM PIP2. The plate is sealed and incubated for 15 minutes at room temperature. To start the reaction, 3.5 ul of ATP (diluted in 1× reaction buffer) is added per well for a final concentration of 10 μM ATP. The plate is sealed and incubated for 1 hour at room temperature. The reaction is stopped by adding 5 ul of Stop Solution per well and then 5 ul of Detection Mix is added per well. The plate is sealed, incubated for 1 hour at room temperature, and then read on an appropriate plate reader. Data is analyzed and IC50s are generated using GraphPad Prism 5. […] For PI3K α, β, δ, and γ, the nM concentration of inhibitor to reach IC50 is provided.
# p110β/p85α = p110β/p85α (Homo sapiens (Human), UniProt P42338); test: PI 3-Kinase (human) HTRF assay, p110β/p85α; assay type: biochemical; details: read-out: PI3K β IC50
# p110β/p85α, sequence (P42338 whole entry): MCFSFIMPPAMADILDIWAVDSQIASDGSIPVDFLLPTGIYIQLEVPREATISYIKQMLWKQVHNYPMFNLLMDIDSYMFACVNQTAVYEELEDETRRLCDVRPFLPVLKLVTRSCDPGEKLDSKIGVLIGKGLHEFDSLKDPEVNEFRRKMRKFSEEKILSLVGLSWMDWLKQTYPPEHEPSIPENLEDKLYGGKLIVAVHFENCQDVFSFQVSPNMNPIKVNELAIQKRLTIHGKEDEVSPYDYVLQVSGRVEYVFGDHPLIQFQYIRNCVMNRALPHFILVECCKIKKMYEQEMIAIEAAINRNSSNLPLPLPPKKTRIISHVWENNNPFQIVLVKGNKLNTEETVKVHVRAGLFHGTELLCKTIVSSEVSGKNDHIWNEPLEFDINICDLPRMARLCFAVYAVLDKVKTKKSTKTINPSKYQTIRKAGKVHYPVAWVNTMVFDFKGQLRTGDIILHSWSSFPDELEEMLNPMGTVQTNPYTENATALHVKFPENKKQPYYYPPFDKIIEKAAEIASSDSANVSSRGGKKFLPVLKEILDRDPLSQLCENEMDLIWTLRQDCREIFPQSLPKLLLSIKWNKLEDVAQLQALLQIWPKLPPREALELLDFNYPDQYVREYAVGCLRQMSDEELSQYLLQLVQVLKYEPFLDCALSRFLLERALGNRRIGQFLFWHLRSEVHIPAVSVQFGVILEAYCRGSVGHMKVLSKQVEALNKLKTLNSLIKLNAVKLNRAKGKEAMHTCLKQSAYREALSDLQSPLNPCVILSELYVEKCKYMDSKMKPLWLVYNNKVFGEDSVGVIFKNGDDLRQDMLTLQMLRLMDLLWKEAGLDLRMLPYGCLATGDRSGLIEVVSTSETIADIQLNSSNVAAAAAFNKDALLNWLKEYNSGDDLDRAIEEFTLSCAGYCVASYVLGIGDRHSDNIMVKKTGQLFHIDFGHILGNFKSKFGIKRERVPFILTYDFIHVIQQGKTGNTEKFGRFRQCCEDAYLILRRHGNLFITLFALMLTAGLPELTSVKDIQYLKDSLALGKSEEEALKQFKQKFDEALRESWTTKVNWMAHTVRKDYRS
# p110β/p85α, sequence (P27986 whole entry partner): as the sequence (P27986 whole entry partner) above
# Procedure: as §1
# [4] = test system: tumor cells with a PI3Kα mutation (e.g., MDA-MB-361 and T47D); test: Proliferation of tumor cells with PI3Kα mutation; assay type: cell-based; details: Homo sapiens, T47D cells
# [5] = test system: p190 transduced leukemic cells; details: about 70 mg/kg twice daily, p190 model; cited from earlier work
# [6] = 5 μM, human plasma, 37° C.; cited from earlier work
# [7] = test system: PI3K/Akt/mTor signaling in blood cells; test: Kinase signaling in blood (phosflow); assay type: cell-based; details: splenocytes or peripheral blood mononuclear cells, anti-CD3 stimulation
# Procedure: PI3K/Akt/mTor signaling is measured in blood cells using the phosflow method (Methods Enzymol. 2007; 434:131-54). The advantage of this method is that it is by nature a single cell assay so that cellular heterogeneity can be detected rather than population averages. This allows concurrent distinction of signaling states in different populations defined by other markers. Phosflow is also highly quantitative. To test the effects of one or more compounds disclosed herein, unfractionated splenocytes, or peripheral blood mononuclear cells are stimulated with anti-CD3 to initiate T-cell receptor signaling. The cells are then fixed and stained for surface markers and intracellular phosphoproteins.
# Similarly, aliquots of whole blood are incubated for 15 minutes with vehicle (e.g., 0.1% DMSO) or kinase inhibitors at various concentrations, before addition of stimuli to crosslink the T cell receptor (TCR) (anti-CD3 with secondary antibody) or the B cell receptor (BCR) using anti-kappa light chain antibody (Fab′2 fragments). After approximately 5 and 15 minutes, samples are fixed (e.g., with cold 4% paraformaldehyde) and used for phosflow. […] The level of phosphrylation of kinase substrates such as Akt and S6 are then measured by incubating the fixed cells with labeled antibodies specific to the phosphorylated isoforms of these proteins. The population of cells is then analyzed by flow cytometry.
# [8] = read-out: PC3 proliferation (nM)*
# [9] = read-out: PC3 proliferation IC50
# [10] = read-out: T47D proliferation IC50
SMILES,"IC50 [3, 8] [nM]",IC50 (p110α/p85α) [nM],IC50 (recombinant mTOR; in vitro) [nM],IC50 (p110α/p85α; in vitro) [nM],"IC50 [4, 10] [nM]",IC50 (p110δ/p85α; in vitro) [nM],IC50 (p110β/p85α; in vitro) [nM],IC50 (p110γ; in vitro) [nM],other results
"O=C(NOC[C@H](O)CO)c1ccc(F)c(F)c1Nc1ccc(I)cc1F [PD0325901, reference compound]",–,–,–,–,–,–,–,–,"Cell cycle arrest, single inhibitor versus DMSO control (HCT116 cells): some increase in cell cycle arrest by comparison to DMSO control"
CO[C@H]1C[C@@H]2CC[C@@H](C)[C@@](O)(O2)C(=O)C(=O)N2CCCC[C@H]2C(=O)O[C@H]([C@H](C)C[C@@H]2CC[C@@H](OCCO)[C@H](OC)C2)CC(=O)[C@H](C)/C=C(\C)[C@@H](O)[C@@H](OC)C(=O)[C@H](C)C[C@H](C)/C=C/C=C/C=C/1C [RAD001],–,–,–,–,–,–,–,–,Effect on lupus symptoms [1]: ameliorate lupus symptoms
"O=C(O)CCCc1ccc(N(CCCl)CCCl)cc1 [chlorambucil, 4-[bis(2-chloroethyl)amino]benzenebutanoic acid]",–,–,–,–,–,–,–,–,Chemical stability of reference compound [2]: largely hydrolyzed over the course of 24 hours
CC(=O)Nc1nc2ccc(-c3ccc4nccc(-c5ccncc5)c4c3)cc2s1 [compound 2],< 10000,< 1000,–,–,–,–,–,–,IC50 (p110γ): < 1000 nM
Nc1nc2ccc(-c3ccc4nccc(-c5ccncc5)c4c3)cc2o1 [compound 4],< 100,< 100,–,–,–,–,–,–,IC50 (recombinant mTOR): < 1000 nM; IC50 (p110δ/p85α): < 100 nM; IC50 (p110β/p85α): < 100 nM; IC50 (p110γ): < 100 nM
Nc1nc2cc(-c3ccc4ncc(-c5ccncc5)n4c3)ccc2o1 [compound 6],< 10000,< 100,–,–,–,–,–,–,IC50 (recombinant mTOR): < 10000 nM; IC50 ([4]; read-out: T47D proliferation): < 1000 nM; IC50 (p110δ/p85α): < 1000 nM; IC50 (p110β/p85α): < 10000 nM; IC50 (p110γ): < 100 nM
Cn1c(=O)n(-c2ccc(C(C)(C)C#N)cc2)c2c3cc(-c4ccc5oc(N)nc5c4)ccc3ncc21 [compound 7],< 100,< 100,–,–,–,–,–,–,IC50 (recombinant mTOR): < 100 nM; IC50 (p110δ/p85α): < 100 nM; IC50 (p110β/p85α): < 100 nM; IC50 (p110γ): < 100 nM
Nc1nc2cc(-c3ccc4ncc(-c5ccncc5)n4n3)ccc2o1 [compound 10],< 1000,< 100,–,–,–,–,–,–,IC50 (recombinant mTOR): < 1000 nM; IC50 ([4]; read-out: T47D proliferation): < 1000 nM; IC50 (p110β/p85α): < 1000 nM; IC50 (p110γ): < 100 nM
CS(=O)(=O)N1CCN(Cc2cc3nc(-c4ccc5oc(N)nc5c4)nc(N4CCOCC4)c3s2)CC1 [compound 129],< 1000,< 100,–,–,–,–,–,–,IC50 (recombinant mTOR): < 1000 nM; IC50 (p110δ/p85α): < 1000 nM; IC50 (p110β/p85α): < 1000 nM; IC50 (p110γ): < 100 nM
CN1CCC(N(C)C(=O)c2cnc3ccc(-c4ccc5oc(N)nc5c4)cn23)CC1 [compound 165],< 1000,< 1000,–,–,–,–,–,–,IC50 (p110δ/p85α): < 10000 nM; IC50 (p110β/p85α): < 10000 nM
CC(=O)Nc1nc2ccc(-c3ccc4oc(N)nc4c3)cc2s1 [compound 231],–,–,< 10000,< 100,< 1000,< 100,< 1000,< 100,"IC50 [3, 9]: < 10000 nM"
CC(=O)Nc1cn2cc(-c3ccc4oc(N)nc4c3)ccc2n1 [compound 234],–,–,< 1000,< 100,< 1000,< 100,< 1000,< 100,"IC50 [3, 9]: < 100 nM"
C[C@@H]1CN(C(=O)C2CN(c3cnc4ccc(-c5ccc6oc(N)nc6c5)cc4n3)C2)CCN1 [compound 267],–,–,< 10000,< 100,< 1000,< 1000,< 10000,< 1000,–
CC(C)[C@@H](N)C(=O)N1CCN(c2cnc3ccc(-c4ccc5oc(N)nc5c4)cc3n2)CC1 [compound 270],–,–,< 10000,< 100,< 1000,< 1000,< 1000,< 1000,–
CN1CCN(C2CN(c3cnc4ccc(-c5ccc6oc(N)nc6c5)cc4n3)C2)CC1 [compound 274],–,–,< 10000,< 100,< 1000,< 10000,< 10000,< 10000,–
Nc1nc2cc(-c3ccc4ncc(N5CC(C(=O)N6CCN(C7CC7)CC6)C5)nc4c3)ccc2o1 [compound 276],–,–,< 10000,< 100,< 1000,< 1000,< 10000,< 1000,–
CN1CCN(c2cnc3ccc(-c4ccc5oc(N)nc5c4)cc3n2)CC1=O [compound 277],–,–,< 10000,< 100,< 1000,< 10000,< 1000,< 1000,–
Nc1nc2cc(-c3ccc4ncc(N5CCN(C(=O)[C@@H](N)CO)CC5)nc4c3)ccc2o1 [compound 298],–,–,< 10000,< 100,< 10000,< 10000,< 1000,< 10000,–
Cc1nccn1C1CN(c2cnc3ccc(-c4ccc5oc(N)nc5c4)cc3n2)C1 [compound 354],–,–,< 10000,< 100,< 1000,< 10000,< 10000,< 10000,–
Cc1ccc(NC(=O)c2ccc(CN3CCN(C)CC3)cc2)cc1Nc1nccc(-c2cccnc2)n1 [imatinib],–,–,–,–,–,–,–,–,Effect on leukemogenesis [5]: delay but not cure leukemogenesis
CC(C)[N+](C)(CCOC(=O)C1c2ccccc2Oc2ccccc21)C(C)C [propantheline],–,–,–,–,–,–,–,–,Plasma stability of control compounds [6]: intermediate plasma stability
CCCOc1cc(N)ccc1C(=O)OCCN(CC)CC [propoxycaine],–,–,–,–,–,–,–,–,Plasma stability of control compounds [6]: low plasma stability
CO[C@H]1C[C@@H]2CC[C@@H](C)[C@@](O)(O2)C(=O)C(=O)N2CCCC[C@H]2C(=O)O[C@H]([C@H](C)C[C@@H]2CC[C@@H](O)[C@H](OC)C2)CC(=O)[C@H](C)/C=C(\C)[C@@H](O)[C@@H](OC)C(=O)[C@H](C)C[C@H](C)/C=C/C=C/C=C/1C [rapamycin],–,–,–,–,–,–,–,–,anti-CD3 mediated Akt -S473 phosphorylation [7]: enhances Akt phosphorylation; anti-CD3 mediated S6 phosphorylation [7]: inhibits S6 phosphorylation
